Test results taken from patent publication US7635779B2, “Oxy substituted flavones as antihyperglycemic and antidyslipidemic agents” (Council of Scientific & Industrial Research, priority 2004, dated 2009).
Like-named read-outs stand apart in the source and are kept apart here.

Experiments:
sucrose loaded rat = experiment: Sucrose loaded rat model (SLM), antihyperglycemic activity; type: in vivo; details: for % Fall in blood glucose levels, SLM: 100 mg/kg oral, AUC vs control; for inhibition in vivo at 100 mg/kg: Rattus norvegicus, po, 2 h, read-out: % Fall in blood glucose levels, SLM
Protocol: Male albino rats of Charles Foster/Wistar strain of average body weight 160±20 g were selected for this study. The blood glucose level of each animal was checked by glucometer using glucostrips (Boehringer Mannheim) after 16 h starvation. Animals showing blood glucose levels between 3.33 to 4.44 mM (60 to 80 mg/dl) were divided into groups of five to six animals in each. Animals of experimental group were administered suspension of the desired synthetic compound orally (made in 1.0% gum acacia) at a dose of 100-mg/kg-body weight. Animals of control group were given an equal amount of 1.0% gum acacia. A sucrose load (10.0 g/kg) was given to each animal orally exactly after 30 min post administration of the test sample/vehicle. Blood glucose profile of each rat was again determined at 30, 60, 90 and 120 min post administration of sucrose by glucometer. Food but not water was withheld from the cages during the course of experimentation. Quantitative glucose tolerance of each animal was calculated by Area Under Curve (AUC) method (Prism Software). Comparing the AUC of experimental and control groups determined the percentage antihyperglycemic activity. Statistical comparison was made by Dunnett's test.

[1] = system: triton WR-1339 induced hyperlipidemic rats; experiment: Triton model, antidyslipidemic activity; type: in vivo, rat; details: Rattus norvegicus, 100 mg/kg oral, plasma after 18 h
Protocol: Male Charles foster rats weighing 200-225 g were divided into control, hyperlipidemic and hyperlipidemic plus drug treated groups containing six animals in each group. Hyperlipidemia was induced by administration of triton WR-1339 (200 mg/kg i.p.). All animals were maintained on a special pellet diet and water ad libitum. Compounds and standard drug were macerated with 0.2% aqueous gum acacia suspension. The suspension was fed orally at the dose of 100 mg/kg simultaneously with triton in drug treated group. The animals of control group received the same amount of gum acacia by similar route of administration. At the end of the experiment, after 18 h, blood was withdrawn from retro orbital plexus and plasma was used for the assay of total cholesterol, phospholipid and triglycerides.
Cholesterol was estimated using the kit provided by Roche Diagnostics. Cholesterol esters are enzymatically hydrolyzed by cholesterol esterase (CE) to cholesterol and free fatty acids. Free cholesterol, including that originally present, is then oxidized by cholesterol oxidase (CO) to cholest-4-en-3-one and hydrogen peroxide. The hydrogen peroxide combines with hydroxy benzoic acid (HBA) and 4-aminoantipyrine (4AAA) in the presence of peroxidase (POD) to form a chromophore (quinoneimine dye), which may be quantitated at 500-505 nm. The intensity of red colour formed is directly proportional to the concentration of total cholesterol in the specimen and measured spectrophotometrically (Searcy, C. L. Diagnostic Biochemistry, 1969, McGraw Hill, New York; Ellefson, R. D.; Caraway, W. T. Fundamentals of clinical chemistry, 1976, Ed Tietz N W, 506-515.)
Triglycerides were estimated using the kit provided by Roche Diagnostics. Lipoprotein lipase hydrolyses triglycerides to yield glycerol and fatty acids. Glycerol kinase converts glycerol to glycerol-3-phosphate, which is oxidized by glycerol phosphate oxidase to dihydroxy acetone phosphate and hydrogen peroxide. In the presence of peroxidase, hydrogen peroxide oxidatively couples with 4-aminoantipyrine and 4-chloro phenol to produce red quinonimine dye. The intensity of red colour formed is directly proportional to the concentration of triglycerides in the specimen and is measured by photometrically (Wahlefeld, A. W.; Bergmeyer, H. U. Ed. Methods of enzymatic analysis, 2nd English edition, New York, N.Y., Academic press inc, 1831-1840.).
Serum (0.2 mL) and perchloric acid (1.0 mL) was digested at 180° C. for 1-1.5 h till the solution became colorless. The liberated inorganic phosphate (Pi) was measured by the method of Fiske and Subbarow (Fiske, C. H.; Subbarow, V. J. Biol. Chem. 1925, 66, 375.). 1 mL of 2.5% ammonium molybdate (prepared in 5 N sulphuric acid) and 0.5 mL reducing agent (4-amino naphthol sulphonic acid, 0.2%), sodium metabisulphite (2.4% w/v in distilled water) was added to the above tubes and mixed well. The reaction mixture was […] with 2.5 mL of triple distilled water and kept at 60° C. in water bath for 20 min. For standard, an appropriate amount of potassium dihydrogen phosphate dissolved in triple distilled water containing 2-10 μg phosphorous (Pi) was run simultaneously with the experiment tubes. The optical density of the blue colour was recorded at 620 nm against reagent blank. The values of Pi were converted into phospholipid by multiplying with 25 (a constant calibrated from Pi value of lecithin).

[2] = system: streptozotocin-induced diabetic rats; experiment: Sucrose-challenged streptozotocin-induced diabetic rats (STZ-S); type: in vivo, rat; details: 100 mg/kg oral
Protocol: Male albino rats of Sprague Dawley strain of body weight 160+20 g were selected for this study. Streptozotocin (Sigma, USA) was dissolved in 100 mM citrate buffer pH 4.5 and calculated amount of the fresh solution was injected to overnight fasted rats (45 mg/kg) intraperitoneally. Blood glucose level was checked 48 h later by glucostrips and animals showing blood glucose values between 144 to 270 mg/dl (8 to 15 mM) were included in the experiment and termed diabetic. The diabetic animals were divided into groups consisting of five to six animals in each group. Animals of experimental groups were administered suspension of the desired test samples orally (made in 1.0% gum acacia) at a dose of 100-mg/kg-body weight. Animals of control group were given an equal amount of 1.0% gum acacia. A sucrose load of 2.5-g/kg body weight was given after 30 minutes of compound administration. After 30 minutes of post sucrose load blood glucose level was again checked by glucostrips at 30, 60, 90, 120, 180, 240, 300 min and at 24 h, respectively. Animals not found diabetic after 24 hours post treatment of the test sample were not considered and omitted from the calculations and termed as non-responders. […] Food but not water was withheld from the cages during the experimentation. Comparing the AUC of experimental and control groups determined the percent antihyperglycemic activity. Statistical comparison between groups was made by Student's ‘t’ test.
As depicted in the FIGURE, a dose response curve of 34 was obtained by administering different doses of test compound to streptozotocin-induced diabetic rats (Table 6). […]

[3] = phospholipid, read-out: % Fall in lipid levels (Triton model) PL
[4] = total cholesterol, read-out: % Fall in lipid levels (Triton model) TC
[5] = triglycerides, read-out: % Fall in lipid levels (Triton model) TG

## CC(C)NCC(O)COc1ccc2c(=O)cc(-c3ccc(OCc4ccccc4)c(OCc4ccccc4)c3)oc2c1 (centres unmarked) [Compound 38, 3′,4′-Dibenzyloxy-7-(2-hydroxy-3-iso-propylamino-propoxy)-flavone]
Sucrose loaded rat
  % Fall in blood glucose levels, SLM: NIL
[1]; [3]
  inhibition in vivo at 100 mg/kg: 5%
[1]; [4]
  inhibition in vivo at 100 mg/kg: 16%
[1]; [5]
  inhibition in vivo at 100 mg/kg: 14%
other
  melting point: 177 to 179 °C

## COc1cc(OC)cc(-c2cc(=O)c3ccc(OCC(O)CNC(C)(C)C)cc3o2)c1 (centres unmarked) [Compound 43, 7-[3-tert-Butylamino-2-hydroxy-propoxy]-3′,5′-dimethoxy flavone]
Sucrose loaded rat
  % Fall in blood glucose levels, SLM: NIL
[1]; [3]
  inhibition in vivo at 100 mg/kg: 19%
[1]; [4]
  inhibition in vivo at 100 mg/kg: 21%
[1]; [5]
  inhibition in vivo at 100 mg/kg: 17%
other
  melting point: 145 to 146 °C

## COc1cc(-c2cc(=O)c3ccc(OCC(O)CN4CCN(c5ccccc5)CC4)cc3o2)cc(OC)c1OC (centres unmarked) [Compound 42, 7-[2-Hydroxy-3-(4-phenylpiperazin-1-yl)-propoxy]-3′,4′,5′-trimethoxy-flavone]
Sucrose loaded rat
  inhibition in vivo at 100 mg/kg: 5.64%
[1]; [3]
  inhibition in vivo at 100 mg/kg: 8%
[1]; [4]
  inhibition in vivo at 100 mg/kg: 19%
[1]; [5]
  inhibition in vivo at 100 mg/kg: 23%
other
  melting point: 170 to 171 °C

## CC(C)(C)NCC(O)COc1ccc2oc(-c3ccc(OCc4ccccc4)c(OCc4ccccc4)c3)cc(=O)c2c1 (centres unmarked) [Compound 39, 6-(3-tert-Butylamino-2-hydroxy-propoxy)-3′,4′-dibenzyloxy-flavone]
Sucrose loaded rat
  inhibition in vivo at 100 mg/kg: 21.8%
[2]
  % Fall in blood glucose levels, STZ-S 5 h: 14.9%
  % Fall in blood glucose levels, STZ-S 24 h: 0.36%
[1]; [3]
  inhibition in vivo at 100 mg/kg: 12%
[1]; [4]
  inhibition in vivo at 100 mg/kg: 21%
[1]; [5]
  inhibition in vivo at 100 mg/kg: 17%
other
  melting point: 156 to 157 °C

## COc1ccc(-c2cc(=O)c3ccc(OCC(O)CN4CCN(c5ccccc5)CC4)cc3o2)cc1OC (centres unmarked) [Compound 47, 3′,4′-Dimethoxy-7-[2-hydroxy-3-(4-phenylpiperazin-1-yl)-propoxy]-flavone]
Sucrose loaded rat
  inhibition in vivo at 100 mg/kg: 5.45%
[1]; [3]
  inhibition in vivo at 100 mg/kg: 22%
[1]; [4]
  inhibition in vivo at 100 mg/kg: 23%
[1]; [5]
  inhibition in vivo at 100 mg/kg: 19%
other
  melting point: 191 to 193 °C

## COc1cc(OC)cc(-c2cc(=O)c3ccc(OCC(O)CN4CCN(c5ccccc5)CC4)cc3o2)c1 (centres unmarked) [Compound 45, 3′,5′-Dimethoxy-7-[2-hydroxy-3-(4-phenylpiperazin-1-yl)-propoxy]-flavone]
Sucrose loaded rat
  % Fall in blood glucose levels, SLM: NIL
[1]; [3]
  inhibition in vivo at 100 mg/kg: 20%
[1]; [4]
  inhibition in vivo at 100 mg/kg: 30%
[1]; [5]
  inhibition in vivo at 100 mg/kg: 31%
other
  melting point: 195 to 196 °C

## CC(C)NCC(O)COc1ccc2c(=O)cc(-c3cc(OCc4ccccc4)cc(OCc4ccccc4)c3)oc2c1 (centres unmarked) [Compound 35, 3′,5′-Dibenzyloxy-7-(2-hydroxy-3-iso-propylamino-propoxy)-flavone]
Sucrose loaded rat
  % Fall in blood glucose levels, SLM: NIL
[1]; [3]
  inhibition in vivo at 100 mg/kg: 8%
[1]; [4]
  inhibition in vivo at 100 mg/kg: 13%
[1]; [5]
  inhibition in vivo at 100 mg/kg: 11%
other
  melting point: 173 to 174 °C

## COc1cc(OC)cc(-c2cc(=O)c3ccc(OCC(O)CNC(C)C)cc3o2)c1 (centres unmarked) [Compound 44, 3′,5′-Dimethoxy-7-[2-hydroxy-3-iso-propylamino-propoxy]-flavone]
Sucrose loaded rat
  inhibition in vivo at 100 mg/kg: 1.36%
[1]; [3]
  inhibition in vivo at 100 mg/kg: 21%
[1]; [4]
  inhibition in vivo at 100 mg/kg: 17%
[1]; [5]
  inhibition in vivo at 100 mg/kg: 24%
other
  melting point: 155 to 156 °C

## O=c1cc(-c2cc(OCc3ccccc3)cc(OCc3ccccc3)c2)oc2cc(OCC(O)CN3CCN(c4ccccc4)CC3)ccc12 (centres unmarked) [Compound 36, 3′,5′-Dibenzyloxy-7-[2-hydroxy-3-(4-phenylpiperazin-1-yl)-propoxy]-flavone]
Sucrose loaded rat
  inhibition in vivo at 100 mg/kg: 34.6%
[2]
  % Fall in blood glucose levels, STZ-S 5 h: NIL
  % Fall in blood glucose levels, STZ-S 24 h: 2.46%
[1]; [3]
  inhibition in vivo at 100 mg/kg: 21%
[1]; [4]
  inhibition in vivo at 100 mg/kg: 24%
[1]; [5]
  inhibition in vivo at 100 mg/kg: 17%
other
  melting point: 168 to 170 °C

## CC(C)(C)NCC(O)COc1ccc2c(=O)cc(-c3cc(O)cc(O)c3)oc2c1 (centres unmarked) [Compound 48, 7-(3-tert-Butylamino-2-hydroxy-propoxy)-3′,5′-dihydroxy-flavone]
Sucrose loaded rat
  inhibition in vivo at 100 mg/kg: 19.1%
[2]
  % Fall in blood glucose levels, STZ-S 5 h: NIL
  % Fall in blood glucose levels, STZ-S 24 h: NIL
[1]; [3]
  inhibition in vivo at 100 mg/kg: 4%
[1]; [4]
  inhibition in vivo at 100 mg/kg: 17%
[1]; [5]
  inhibition in vivo at 100 mg/kg: 16%
other
  melting point: 153 °C (dec.)

## COc1cc(-c2cc(=O)c3ccc(OCC(O)CNC(C)C)cc3o2)cc(OC)c1OC (centres unmarked) [Compound 41, 7-(2-Hydroxy-3-iso-propylamino-propoxy)-3′,4′,5′-trimethoxy-flavone]
Sucrose loaded rat
  inhibition in vivo at 100 mg/kg: 20.7%
[2]
  % Fall in blood glucose levels, STZ-S 5 h: 17.4%
  % Fall in blood glucose levels, STZ-S 24 h: 19.1%
[1]; [3]
  inhibition in vivo at 100 mg/kg: 16%
[1]; [4]
  inhibition in vivo at 100 mg/kg: 18%
[1]; [5]
  inhibition in vivo at 100 mg/kg: 19%
other
  melting point: 106 to 107 °C

## CC(C)(C)NCC(O)COc1ccc2c(=O)cc(-c3ccc(OCc4ccccc4)c(OCc4ccccc4)c3)oc2c1 (centres unmarked) [Compound 37, 7-(3-tert-Butylamino-2-hydroxy-propoxy)-3′,4′-dibenzyloxy-flavone]
Sucrose loaded rat
  % Fall in blood glucose levels, SLM: NIL
[1]; [3]
  inhibition in vivo at 100 mg/kg: 12%
[1]; [4]
  inhibition in vivo at 100 mg/kg: 23%
[1]; [5]
  inhibition in vivo at 100 mg/kg: 16%
other
  melting point: 159 to 161 °C
